# Tested on: recombinant EBIV carrying green fluorescent protein
# Experiment: Antiviral drug screening with green fluorescent recombinant EBIV in BHK-21 cells, fluorescence per well by high content screening
# Format: cell-based, Ebinur Lake virus (EBIV)
# Settings: Ebinur lake virus, BHK-21, 36 h, read-out: EC50 (half-maximal effect concentration)
# Procedure: Further, the recombinant EBIV disclosed in the examples of the present application can also be used for the screening of antiviral drugs, for example for the screening of antiviral compounds. The specific steps were as follows.
# (1) A 96-well plate for BHK-21 cells was prepared. The cells were planked at 10^4 cells/well. The plate was cultured in a cell incubator with a temperature of 37° C. and a CO2 concentration of 5%. The drug screening test was conducted when the cells grew to 40-50%. The drug to be tested was dissolved in dimethyl sulfoxide. Then the drug was diluted to 100 μM with DMEM medium containing 2% FBS. After that, the drug was subjected to serial 2-fold dilution to obtain the dilution gradient with the concentration of 100 μM, 50 μM, 25 μM, 12.5 μM, 6.25 μM, 3.125 μM, and 1.5625 μM, respectively (the concentration of DMSO in the diluted drug shall be <0.1%).
# (2) The original culture medium was removed from the 96-well plate. The virus was inoculated into the 96-well plate at an MOI of 0.01 and a volume of 100 μL/well. At the same time, the diluted drugs to be tested were respectively added into the same 96-well plate at 100 μL/well and mixed well with the virus solution. The plate was incubated in a cell incubator with a temperature of 37° C. and a CO2 concentration of 5% for 36 hours before detection.
# (3) The 96-well plate was photographed and data was analyzed using a high content screening (HCS) system to determine the amount of fluorescence per well and calculate the Z-factor for each compound:
# [formula] where the four parameters σs, σc, μs, and μc represent the standard deviation and mean of the sample to be tested (s) and the negative (c) control, respectively. The stability and sensitivity of the screening system were then assessed using the Z′-factor:
# [formula] where the four parameters σp, σn, μp, and μn represent the standard deviation and mean of the positive sample (p) and the negative (n) control, respectively.
# (4) Cell viability per well (and the percentage of cells remaining per well) was observed under a microscope and the half-maximal effect concentration (EC50) of the drug was calculated using GraphPad Prism 9 software and an EC50 graph was plotted.
row,Molecule,EC50
1,"NC(=O)c1ncn([C@@H]2O[C@H](CO)[C@@H](O)[C@H]2O)n1 [ribavirin, reference compound]",21.9 µM

# Same assay, conditions: even at 50 μM; BHK-21 cells, MOI 0.01, 36 hours
row,Molecule,inhibitory effect on the virus
1,"NC(=O)c1nc(F)c[nH]c1=O [favipiravir, reference compound]",no inhibitory effect

# Same assay, conditions: high-content screening; compared with Z'-factor 0.46 of the system (25 μM ribavirin positive control)
row,Molecule,Z-factor
1,"CC(C)=CCC(OC(=O)C=C(C)C)C1=CC(=O)c2c(O)ccc(O)c2C1=O (stereo not drawn) [Beta, beta-dimethyl acryl shikonin]",0.53
2,C[C@@]12C(=O)OC(=O)[C@]1(C)[C@H]1CC[C@@H]2O1 [Cantharidin],0.50
3,"C[C@H](CCC(=O)O)[C@H]1CC[C@H]2[C@@H]3[C@H](O)C[C@@H]4C[C@H](O)CC[C@]4(C)[C@H]3CC[C@]12C [Chenodeoxycholic acid, reference compound]",0.59
4,"COc1ccc(-c2cc(=O)c3c(O)cc(O[C@@H]4O[C@H](CO[C@@H]5O[C@@H](C)[C@H](O)[C@@H](O)[C@H]5O)[C@@H](O)[C@H](O)[C@H]4O)cc3o2)cc1O [Diosmin, reference compound]",0.58
5,Oc1cc(O)c2c(c1)O[C@H](c1cc(O)c(O)c(O)c1)[C@H](O)C2 [Epigallocatechol],0.51
6,CC(C)=CCc1c(O)ccc(C(=O)/C=C/c2ccc(O)cc2)c1O [Isobavachalcone],0.58
7,CC(C)=CCc1cc2c(cc1O)oc(=O)c1c3ccc(O)cc3oc21 [Psoralidin],0.46
8,C=C[C@H]1[C@H](O[C@@H]2O[C@H](CO)[C@@H](O)[C@H](O)[C@H]2O)OC=C(C(=O)OC)[C@H]1CC(=O)O [Secoxyloganin],0.56
9,Clinodiside Aogenin A,0.54
